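These data come from cells grown in 96-well plates and exposed to compound for 48 hours at five concentrations. Abbreviation: GI50, concentration required for 50% inhibition of growth.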 Calls of active or inactive are those of the source. Cut-off read from the data, not from the text of the source: active = GI50 up to about 1.1 µM and inactive = higher.
Key:
Test in all cases: inhibition of tumour cell growth, NCI panel, 48 h
[1] = system: SF-295
[2] = system: RPMI-8226
[3] = system: OVCAR-5
[4] = system: T47D
[5] = system: HCT-116
[6] = system: MDA-N
[7] = system: SR
[8] = system: KM12
[9] = system: SF-539
[10] = system: SNB-75
[11] = system: U-251
[12] = system: CCRF-CEM
[13] = system: MCF7
[14] = system: UACC-62
[15] = system: UO-31
[16] = system: HOP-62
[17] = system: SK-OV-3
[18] = system: MDA-MB-231
[19] = system: OVCAR-3
[20] = system: K562

Measured: GI50

O=[N+]([O-])c1cccnc1NCC1(CO)CC(Cc2ccccc2)C1 (stereo not given)
inactive: [1] > 100 µM | [2] 99.8 µM | [3] > 100 µM | [4] > 100 µM | [5] > 100 µM | [6] > 100 µM | [7] > 100 µM | [8] > 100 µM | [9] > 100 µM | [10] > 100 µM | [11] > 100 µM | [12] > 100 µM | [13] > 100 µM | [14] > 100 µM | [15] 74 µM | [16] > 100 µM | [17] > 100 µM | [18] > 100 µM | [19] > 100 µM | [20] > 100 µM

CCOC(=O)C(NC(=O)c1ccccc1)(Nc1ccc(Cl)cc1C(F)(F)F)C(F)(F)F (stereo not given)
inactive: [1] 4.03 µM | [2] 2.96 µM | [3] 13.5 µM | [4] 4.39 µM | [5] 3.78 µM | [6] 1.51 µM | [7] 2.28 µM | [8] 1.42 µM | [9] 5.71 µM | [10] 2.29 µM | [11] 3.74 µM | [12] 1.7 µM | [13] 4.83 µM | [14] 5.3 µM | [15] 5.21 µM | [16] 3.91 µM | [17] 9.4 µM | [18] 6.31 µM | [19] 3.57 µM | [20] 2.47 µM
